Results on 24 molecules are retold here after PubChem BioAssay (NCI).

Assay in all cases: growth of human tumour cells (NCI), 48 h
The test system of assay [1] is KM20L2 colon.
Assay [2] relates to DLD-1 colon.
In assay [3] the test system is LXFL 529 NSCLC.
Assay [4] has as its system XF 498 CNS.
In assay [5] the test system is DMS 114 small cell lung.
Assay [6] deals with M19-MEL melanoma.
Assay [7] deals with SNB-78 CNS.
The subject of assay [8] is MDA-N.
Assay [9] concerns RXF-631 renal.

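Test compounds were applied to cells in 96-well plates for 48 hours at 5 doses. Here, GI50 denotes the concentration required for 50% inhibition of growth. TGI: total growth inhibition.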 A value given as a limit tells only on which side of the number the result lay.

As for `Nc1ccn(CC(CO)CC(c2ccccc2)P(=O)(O)O)c(=O)n1` (stereo not given), the TGI in assay [1], in [2], in assay [3], in assay [4], in assay [5] and in assay [6] was more than 100 µM each time. Moreover, the TGI in [7] was more than 100 µM.

For the molecule `CCN1C(=O)C(N=[N+]=[N-])(c2ccccc2)C(=O)c2ccccc21` (stereo not given), the TGI in [1] was more than 100 µM; in assay [2], more than 100 µM; in assay [3], more than 100 µM; in assay [4], 33 µM; in assay [5] it was more than 100 µM; in assay [6], more than 100 µM. The molecule further yielded a TGI in assay [7] of more than 100 µM.

Consider `CC(C(=O)N1C(=O)N(C(=O)[C@H](C)C(O)c2ccccc2)[C@H](c2ccccc2)[C@H]1c1ccccc1)[C@@H](O)c1ccccc1` (stereo not given in full), for which the TGI in assay [8] was found to be 60.7 µM.

As for `COC(=O)C(C(=O)C(=O)Nc1ccc([N+](=O)[O-])cc1)c1nc2cc(C)c(C)cc2[nH]c1=O` (stereo not given), the TGI in assay [1], in assay [2], in assay [3], in assay [4], in [5] and in [6] was more than 100 µM each time. The molecule further yielded a TGI in assay [7] of more than 100 µM.

For `CCOC(=O)/C(=C/c1ccc(Cl)cc1)N(CC)CC`, the TGI in assay [2], in assay [3], in [4], in assay [6] and in [7] was more than 100 µM throughout.

Take `COc1ccc(N2C(=O)C3c4[nH]c5cc(Cl)ccc5c4C4CCC(C(C)(C)C)CC4C3C2=O)cc1` (stereo not given): the TGI in assay [8] is more than 100 µM.

In the case of `CCOC(=O)NN(C(=O)OCC)C(C(=O)c1ccc(Cl)cc1)=C1NCCN1`, the TGI in [1], in assay [2], in assay [3], in assay [4], in assay [5] and in [6] was more than 100 µM throughout. This molecule showed a TGI in assay [7] of more than 100 µM.

On to `Nc1nc(Cl)nc2c1ncn2C1CCC(COP(=O)(O)OP(=O)(O)OP(=O)(O)O)O1` (stereo not given), for which the TGI in assay [8] was more than 100 µM.

`CC1=C2[C@@H](c3ccccc3)C3C=CC2(c2ccccc23)N(C(=O)Nc2cccc3ccccc23)C1=O` (stereo not given in full): the TGI in [1], in assay [3], in [4], in assay [5] and in [7] was more than 100 µM in each case.

Regarding `CCOC1=C2C(C)(CCC3[C@@]4(C)C=CC(=O)C(C)(C)C4CC(O)[C@@]23C)C(c2ccoc2)C1=O` (stereo not given in full), the TGI in assay [9] was 70.5 µM; in assay [1], 32 µM; in [2] it was 29.7 µM; in [5] it was 36.8 µM; in assay [6], 44.1 µM; in assay [7], more than 100 µM.

For the molecule `CCCC(=O)Nc1ncnc2c1ncn2C1OC2COP(=O)(O)OC2C1OC(=O)CCC` (stereo not given), in assay [8], the GI50 is more than 1000 µM and the TGI is more than 1000 µM.

`O=C1CCCCCCCCCCC1CN(Cc1ccccc1)Cc1ccccc1` (stereo not given) returned a TGI in [8] of more than 100 µM.

Take `NC(=O)OCC(COc1ccc(Cl)cc1)OC(=O)c1cc([N+](=O)[O-])cc([N+](=O)[O-])c1` (stereo not given): the TGI was more than 100 µM in assay [9]; more than 100 µM in assay [1]; more than 100 µM in assay [2]; more than 100 µM in assay [3]; more than 100 µM in assay [4]; 53.8 µM in assay [5]. Also, the TGI in [7] is more than 100 µM.

On to `COc1ccc(CCN2COc3ccc4ccc(=O)oc4c3C2)cc1OC`, for which the TGI in assay [8] is more than 100 µM.

Take `Cc1cc2c(=O)c3ccccc3oc2c(C#N)c1C`: the TGI in [8] is more than 100 µM.

With `COC(=O)C1CCC[C@H]2C(CO)=C(C)C(=O)[C@@H]12` (stereo not given in full), the TGI in [1], in [2], in assay [3], in assay [4], in assay [5] and in assay [7] was more than 100 µM each time.

As to `N#Cc1nc(Nc2ccc(Cl)cc2)sc1N`, the TGI is more than 52 µM in assay [1]; more than 100 µM in assay [2]; 22.7 µM in assay [3]; more than 100 µM in [4]; 73.7 µM in [5]; more than 100 µM in assay [6]. This molecule also returned a TGI in assay [7] of more than 100 µM.

Consider `N#CC(C#N)=Cc1ccc(Oc2ccccc2)cc1`, for which the TGI was more than 100 µM in assay [9]; more than 100 µM in [1]; 20.6 µM in [2]; 56.7 µM in [3]; more than 100 µM in [4]; 84 µM in assay [5]. Besides, the TGI in assay [6] was more than 64.8 µM; in assay [7], more than 90.8 µM.

Take `Cc1ccc(S(=O)(=O)NC(=O)C#CCOC2CCCCO2)cc1` (stereo not given): the TGI in assay [9], in [1], in assay [2], in assay [3], in assay [4] and in assay [5] was more than 100 µM in each case. In [6], the TGI is more than 100 µM.

`O=C(NCCCCCCNC(=O)NC1OCC(O)C(O)C1O)NC1OCC(O)C(O)C1O` (stereo not given): the TGI in assay [2], in assay [3], in assay [5], in [6] and in assay [7] was more than 100 µM each time.

In the case of `COc1cc2c3c(c1OCc1ccccc1)NCCC3NCC2` (stereo not given), the TGI in assay [9], in assay [1], in assay [2], in assay [3], in assay [4] and in [5] was more than 100 µM in each case. In addition, the TGI in assay [6] and in assay [7] was more than 100 µM in each case.

Turning to `COc1ccc(NC(=O)CC(=O)n2nc(-c3ccccc3)c(N=Nc3ccccc3C)c2-c2ccccc2)cc1`, the TGI in assay [8] was more than 100 µM; in assay [9] it was more than 100 µM; in assay [1] it was more than 100 µM; in assay [2] it was 82.5 µM; in assay [3] it was more than 100 µM; in assay [4] it was 33.3 µM. Besides, the results for the TGI in [5] and in [6] were 49.7 µM and more than 100 µM, respectively.

`COc1ccc(OC)c(-c2cc(C(=O)O)c3cc4ccccc4cc3n2)c1`: the TGI in [8] is more than 100 µM.

In assay [8], `O=[N+]([O-])c1ccc(NN=C2c3ccccc3Cc3ccccc32)c([N+](=O)[O-])c1` had a TGI of 7.75 µM.
